# Assay results taken from patent US20030203888A1, “Chromophores” (priority 2001, published 2003).
# B1: OH6/17.1A: OH6 conjugated with 17.1A monoclonal antibody, MRs of 2.5, 5, 10 and 20 (conjugate, chains of the INN, looked up)
# VH: QVQLQQSGAELVRPGTSVKVSCKASGYAFTNYLIEWVKQRPGQGLEWIGVINPGSGGTNYNEKFKGKATLTADKSSSTAYMQLSSLTSDDSAVYFCARDGPWFAYWGQGTLVTVSA
# VL: NIVMTQSPKSMSMSVGERVTLTCKASENVVTYVSWYQQKPEQSPKLLIYGASNRYTGVPDRFTGSGSATDFTLTISSVQAEDLADYHCGQGYSYPYTFGGGTKLEIK
# modifications: conjugated to OH6
# B2: PYR/17.1A: PYR conjugated with 17.1A monoclonal antibody (conjugate, chains of the INN, looked up)
# VH: B1 VH
# VL: B1 VL
# modifications: conjugated to PYR
# notes: PYR conjugated with 17.1A monoclonal antibody
# Tests used:
# avidin = avidin (Gallus gallus, UniProt P02701); test: 'Blank' bioconjugation: non-covalent binding of unreactive fluorophore to avidin (gel filtration, UV analysis); details: after PD-10 gel filtration
# Chain of avidin (P02701 25-152, species assumed): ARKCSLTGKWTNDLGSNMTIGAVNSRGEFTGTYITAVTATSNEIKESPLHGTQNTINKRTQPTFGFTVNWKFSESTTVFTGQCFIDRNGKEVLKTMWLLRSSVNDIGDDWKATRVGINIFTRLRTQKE
# Excerpt: (§1) Experiments have been undertaken to determine the level of non-covalent binding of fluorophore to the protein surface (BSA and avidin). ‘Blank’ bioconjugations using mixtures of the unreactive DPCH and DPBC derivatives 2,3-dihydroxy-5-(4-methoxyphenyl)-15-(4-acetomidophenyl)chlorin (higher Rf regioisomer) and 2,3,12,13-tetrahydroxy-5-(4-acetomidophenyl)-15-(4-methoxyphenyl) bacteriochlorin (higher Rf […] stereoisomer) with both BSA and avidin have been carried out and the resultant protein solutions have been purified by gel filtration (PD-10) as described for the reactive probes described earlier. […] For BSA or avidin, 1 unreactive DPCH binds to each protein molecule, whereas DPBC is less than 1 due probably to its increased polarity and non-amphiphilic nature.
# BSA = BSA (Bos taurus, UniProt P02769); test: 'Blank' bioconjugation: non-covalent binding of unreactive fluorophore to BSA (gel filtration, UV analysis); details: after PD-10 gel filtration
# Chain of BSA (P02769 25-607): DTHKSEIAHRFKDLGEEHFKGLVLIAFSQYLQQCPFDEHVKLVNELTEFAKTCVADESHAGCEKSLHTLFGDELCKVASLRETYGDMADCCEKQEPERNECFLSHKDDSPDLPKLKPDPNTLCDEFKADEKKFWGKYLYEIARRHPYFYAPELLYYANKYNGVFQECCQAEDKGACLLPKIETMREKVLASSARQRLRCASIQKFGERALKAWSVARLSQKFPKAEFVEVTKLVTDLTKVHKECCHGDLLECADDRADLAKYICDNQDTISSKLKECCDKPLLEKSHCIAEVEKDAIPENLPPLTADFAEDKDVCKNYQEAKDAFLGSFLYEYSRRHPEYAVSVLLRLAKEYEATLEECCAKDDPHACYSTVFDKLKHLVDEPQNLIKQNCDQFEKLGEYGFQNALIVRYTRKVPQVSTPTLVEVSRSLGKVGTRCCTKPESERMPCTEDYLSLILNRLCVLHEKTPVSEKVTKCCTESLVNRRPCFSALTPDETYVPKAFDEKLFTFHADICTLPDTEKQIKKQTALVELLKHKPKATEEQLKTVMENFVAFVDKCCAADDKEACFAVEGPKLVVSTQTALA
# Excerpt: as §1
# [1] = Solubility in water of the chloride salts
# Colo 320 cells [2] = test: Standard photocytotoxicity test (MTT); type: cell-based, human; details: 3.6J/cm2 filtered red light, MTT % cell survival
# Description: Cells are grown to confluence or appropriate density then washed 2 times with PBS (phosphate buffered saline) to eliminate all trace of FBS (fretal bovine serum). Cell density is adjusted to 1.5×10^6 cells/ml in medium without FBS and these are then incubated for 1 hour in the dark (37 degrees C., 5% CO2) with a range of photosensitiser/conjugate concentrations. Post incubation, cells are washed further with medium (without FBS)to eliminate unbound photosensitiser, then resuspended and seeded in 96 wells plates (1×10^5 cells/well) in quadruplate. Plates are then either irradiated (3.6J/cm2 of filtered red light […]) or left in the dark as “dark toxicity controls” for the same period of time (14 minutes).Five microliters (5%/well) of FBS is added after the irradiation/dark period and the plates are returned to the incubator overnight. Twenty to 24 hours after treatment, 10 μl of MTT solution (Sigma Thiazolyl blue, 4.8×10^−4M in PBS)is added per well and the plates are returned to the incubator until color develops (between 1 and 4 hours). A solution of acid-alcohol (100 μl/well of 0.04N HCL in isopropanol) is the added and mixed thoroughly to dissolve the dark blue crystals. Plates are then read at 570 nm in a microplate reader and the % cell survival calculated against controls. […]
# Colo 320 cells [3] = test: FACS conjugate binding analysis; type: cell-based, human; details: FITC detection, 3 repeats
# Description: Wash flask of cells with phosphate buffered saline (PBS) pH 7.3. Treat with 5 mM EDTA in PBS for 10 min at 37C. Tap flask to dislodge cells, place in 50 mL polypropylene tube and pellet at 400 g 3 min. Resuspend in 10 mL PBS and count cells. Place 2×10^5 in FACS tube (Falcon 2054) and wash with 1 mL PBS by centrifugation (400 g 3 min) and resuspension by agitation
# Block cells in 500 μL 2% Marvel milk powder in PBS, 1% BSA 30 min RT
# Wash cells in 1 mL PBS/BSA/Azide centifuge and resuspend pellet (as above)
# Add 10 μL appropriate antibody dilution. Incubate on ice 1 h
# Add 50 μL Rabbit anti-mouse:FITC (Serotec, 1/100 dilution) and incubate on ice in the dark 1 h
# Wash cells in 1 mL PBS/BSA/Azide centiflige (as above) and resuspend pellet in 400 μL PBS/BSA/Azide.
# Run samples through FACS machine using CellQuest acquisition software to collect data.
# FACS analyses were run in accordance with Methodology Description 5.
molecule,measurement,setting,value
S=C=Nc1ccc(-c2c3nc(c(-c4ccncc4)c4ccc([nH]4)c(-c4ccncc4)c4nc(c(-c5ccncc5)c5ccc2[nH]5)C=C4)C=C3)cc1,melting point,,> 350 °C (dec.)
"COc1ccc(-c2c3nc(cc4ccc([nH]4)c(-c4ccc(NC(C)=O)cc4)c4nc(cc5ccc2[nH]5)C(O)C4O)C(O)C3O)cc1 (stereo not shown) [Example 12, 7,8,17,18-tetrahydroxy-5-(4-acetamidophenyl)-15-(4-methoxyphenyl)bacteriochlorin]",unreactive fluorophore molecules non-covalently bound to each protein molecule,avidin,less than 1
same,unreactive fluorophore molecules non-covalently bound to each protein molecule,BSA,less than 1
"Nc1ccc(-c2c3nc(c(-c4cc(O)cc(O)c4)c4ccc([nH]4)c(-c4cc(O)cc(O)c4)c4nc(c(-c5cc(O)cc(O)c5)c5ccc2[nH]5)C=C4)C=C3)cc1 [OH6-NH2, 5-(4-Aminophenyl)-10,15,20-tris(3,5-dihydroxyphenyl)porphyrin]",melting point,,> 350 °C (dec.)
S=C=Nc1ccc(-c2c3nc(c(-c4cccnc4)c4ccc([nH]4)c(-c4cccnc4)c4nc(c(-c5cccnc5)c5ccc2[nH]5)C=C4)C=C3)cc1,melting point,,> 350 °C (dec.)
"COc1ccc(-c2c3nc(cc4ccc([nH]4)c(-c4ccc(NC(C)=O)cc4)c4nc(cc5ccc2[nH]5)C=C4)C(O)C3O)cc1 (stereo not shown) [Example 10, 17,18-Dihydroxy-5-(4-acetamidophenyl)-15-(4-methoxyphenyl)chlorin]",unreactive fluorophore molecules non-covalently bound to each protein molecule,avidin,1
same,unreactive fluorophore molecules non-covalently bound to each protein molecule,BSA,1
Oc1cc(O)cc(-c2c3nc(c(-c4cc(O)cc(O)c4)c4ccc([nH]4)c(-c4cc(O)cc(O)c4)c4nc(c(-c5ccc(N=C=S)cc5)c5ccc2[nH]5)C=C4)C=C3)c1,melting point,,> 350 °C (dec.)
"5-(4-Isothiocyanatophenyl)-10,15,20-tris(4-N-methylpyridiniumyl) porphyrin Trichloride [Example 6]",solubility in water,[1],water soluble
B1,photocytotoxicity following irradiation,Colo 320 cells [2],significant increase in cytotoxicity on irradiation
same,binding to Colo 320 cells,Colo 320 cells [3],has bound to the cells
B2,photocytotoxicity following irradiation,Colo 320 cells [2],significant increase in cytotoxicity on irradiation
same,binding to Colo 320 cells,Colo 320 cells [3],has bound to the cells
